SMILES strings stand for the structures.

The values that follow come from patent US20080076751A1, “Azetidinone Derivatives and Methods of Use Thereof” (priority 2006, published 2008).

One test addresses T1, human NPC1L1 (Homo sapiens, UniProt Q9UHC9).
T1 construct: expressed in transfected cells; host or cells: HEK-293 (geneticin selection)
T1 sequence (Q9UHC9 22-1359): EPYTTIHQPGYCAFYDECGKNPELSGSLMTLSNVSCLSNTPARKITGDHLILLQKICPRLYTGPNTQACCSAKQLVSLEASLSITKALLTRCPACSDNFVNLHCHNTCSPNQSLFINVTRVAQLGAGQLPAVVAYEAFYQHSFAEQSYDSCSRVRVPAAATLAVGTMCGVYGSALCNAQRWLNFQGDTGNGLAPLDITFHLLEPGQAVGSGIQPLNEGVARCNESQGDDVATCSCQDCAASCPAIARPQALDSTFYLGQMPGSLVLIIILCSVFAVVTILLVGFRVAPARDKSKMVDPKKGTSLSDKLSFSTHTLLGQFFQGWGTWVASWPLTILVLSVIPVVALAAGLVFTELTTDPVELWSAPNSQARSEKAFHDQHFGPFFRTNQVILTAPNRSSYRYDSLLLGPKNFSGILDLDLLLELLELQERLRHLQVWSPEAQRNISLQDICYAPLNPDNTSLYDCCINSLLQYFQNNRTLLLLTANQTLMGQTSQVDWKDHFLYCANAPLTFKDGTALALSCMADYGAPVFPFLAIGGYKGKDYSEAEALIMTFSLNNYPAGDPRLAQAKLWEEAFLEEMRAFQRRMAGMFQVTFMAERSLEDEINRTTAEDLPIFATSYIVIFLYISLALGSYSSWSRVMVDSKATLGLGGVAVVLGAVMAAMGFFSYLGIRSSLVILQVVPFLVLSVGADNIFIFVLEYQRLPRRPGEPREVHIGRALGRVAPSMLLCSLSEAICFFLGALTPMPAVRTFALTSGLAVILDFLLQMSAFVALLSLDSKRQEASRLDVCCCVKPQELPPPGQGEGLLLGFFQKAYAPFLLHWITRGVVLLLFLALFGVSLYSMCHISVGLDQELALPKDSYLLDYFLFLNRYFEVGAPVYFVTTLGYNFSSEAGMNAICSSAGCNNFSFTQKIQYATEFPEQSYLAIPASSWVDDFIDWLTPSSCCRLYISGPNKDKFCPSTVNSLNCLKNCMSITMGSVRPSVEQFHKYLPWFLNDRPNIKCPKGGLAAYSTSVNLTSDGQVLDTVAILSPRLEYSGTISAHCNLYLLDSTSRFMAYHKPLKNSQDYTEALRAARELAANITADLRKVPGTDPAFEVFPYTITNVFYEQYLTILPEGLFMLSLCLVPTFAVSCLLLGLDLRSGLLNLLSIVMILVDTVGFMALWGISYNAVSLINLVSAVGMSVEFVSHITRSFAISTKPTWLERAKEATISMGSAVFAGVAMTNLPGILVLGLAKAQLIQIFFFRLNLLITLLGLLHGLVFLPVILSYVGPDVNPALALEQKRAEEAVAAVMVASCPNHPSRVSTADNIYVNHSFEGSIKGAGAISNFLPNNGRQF
The test can be described thus: NPC1L1 binding assay (BODIPY-labeled glucuronidated ezetimibe competition), human. Particulars: HEK-293 cells expressing human NPC1L1, 4 hours at 37° C. As for the experimental part: HEK-293 cells expressing human NPC1L1 were plated into 384-well black/clear plates (BD Biosciences, Bedford Mass.) for binding experiments the following day. Cell growth media (DMEM, 10% fetal calf serum, 1 mg/mL geneticin, 100 Units/mL penicillin) was aspirated. Cell growth media ([…]) containing 250 nM BODIPY-labeled glucuronidated ezetimibe was added to each well. Cell growth media ([…]) containing the indicated concentration of compound was then added to the wells. Unlabeled glucuronidated ezetimibe ([…]) was used to determine nonspecific binding. The binding reaction was allowed to proceed for 4 hours at 37° C. Subsequently the cell growth media was aspirated and the cells washed once with PBS. The remaining fluorescent labeled glucuronidated ezetimibe bound to the cells was quantified using a FlexStation plate reader (Molecular Devices, Sunnyvale Calif.) to measure fluorescence intensity. Ki values were determined from competition binding curves (n=4 for each point) using Prism and Activity Base software.

A further test addresses NPC1L1 (Rattus norvegicus, UniProt Q6T3U3). Put plainly: NPC1L1 binding assay (BODIPY-labeled glucuronidated ezetimibe competition), rat.

What is called Ki is a dissociation constant, usually derived from enzyme kinetics or from competition with a known ligand. A low value points to higher affinity. Take `O=C(Nc1c(Cl)cccc1Cl)N1CCC2(CC1)C(=O)N(c1ccccc1)C2c1ccccc1` (single isomer, unassigned) [drawing 666]: the Ki on human NPC1L1 was found to be 1.57 µM; at NPC1L1, 0.782 µM.
Consider `O=C(Nc1c(Cl)cccc1Cl)N1CCC2(CC1)C(=O)N(c1ccccc1)C2c1ccccc1` (single isomer, unassigned) [drawing 667], for which the Ki at human NPC1L1 worked out at 17.6 µM; at NPC1L1 it was 18 µM.
